The values that follow come from patent publication US12629348B2, “Method and composition for treating osteoarthritis” (Vireo Systems, Inc., priority 2013, dated 2026).

The subject of series [1] is serum amyloid A. Put plainly: Serum amyloid A (solid phase sandwich EIA) in OA canines. Particulars: 36 mg/kg/day oral. Type of series: in vivo, canine. How it is done:
The double-blind study was performed on a total of 30 adult canines of various breeds in five different private practice clinics. Owner consent was obtained prior to participation in the study. Each clinic was responsible for enrolling 6 canines into the study. Inclusion criteria for the study consisted of clinical assessment and radiograph confirmation of OA in at least one joint and a score of 22 or greater on the Helsinki chronic pain index (“HCPI”). Use of NSAIDs or other dietary supplements for OA were allowed, provided the current treatment regimens had not been altered for a period of at least three months. […]
In addition to the standard blood chemistry profile, blood samples taken before and at the conclusion of the two-week trial period were analyzed for PGE2 and SAA. […] Both plasma and serum samples were centrifuged at 2000×g for 10 minutes and the plasma and serum supernatants removed and frozen at […] until analyzed for PGE2 and SAA using enzyme-linked immunosorbent assays (“HA”). […] Plasma samples were analyzed for PGE2 using the bicycle PGE2 competitive EIA kit purchased from Cayman Chemical (Ann Arbor, MI). The assay converts PGE2 metabolites into a stable derivative that is measured using EIA. Samples (100 μl) were analyzed in triplicate and PGE2 concentrations determined by use of standard curve. […]

For series [2], the system named is canines having OA. The series can be described thus: Double-blind randomized trial in OA canines: daily activity by pedometer. Format: in vivo, canine. Particulars: 36 mg/kg/day oral. On the procedure: The double-blind study was performed on a total of 30 adult canines of various breeds in five different private practice clinics. Owner consent was obtained prior to participation in the study. Each clinic was responsible for enrolling 6 canines into the study. Inclusion criteria for the study consisted of clinical assessment and radiograph confirmation of OA in at least one joint and a score of 22 or greater on the Helsinki chronic pain index (“HCPI”). Use of NSAIDs or other dietary supplements for OA were allowed, provided the current treatment regimens had not been altered for a period of at least three months. […] Canines participating in the study were also fitted with pedometers (Draco Tech International, Taiwan) to quantitatively track changes in daily activity during the course of the study. […] The pedometers were fitted onto the collars at the clinic, and owners were instructed on care and maintenance of the pedometers and provided a log book to record the daily pedometer readings. Pedometer readings were recorded on a daily basis starting one week prior to the study and continuing throughout the two-week trial period. The daily pedometer readings recorded throughout an entire week (7-day period) were used to determine the average daily activity during the baseline period (one week prior to the start of the study) and the first and second weeks of the trial. […]

The nature of series [3]: Standard blood chemistry profile of OA canines for trial period. Format: in vivo, canine. Particulars: 36 mg/kg/day oral. How it is done: The double-blind study was performed on a total of 30 adult canines of various breeds in five different private practice clinics. Owner consent was obtained prior to participation in the study. Each clinic was responsible for enrolling 6 canines into the study. Inclusion criteria for the study consisted of clinical assessment and radiograph confirmation of OA in at least one joint and a score of 22 or greater on the Helsinki chronic pain index (“HCPI”). Use of NSAIDs or other dietary supplements for OA were allowed, provided the current treatment regimens had not been altered for a period of at least three months. A randomized block design was used with canines assigned in a one to one ratio into either placebo (36 mg/kg/day maltose-dextran; Vireo Resources, Plattsmouth, NE) or Alpha-GEE (36 mg/kg/day; Vireo Resources, Plattsmouth, NE) treatment group. The block size was six canines, corresponding to the total number of canines enrolled from each clinic. Group assignments for each canine were blinded to both the owners and attending veterinarian until all the data was collected and reported. Both Alpha-GEE and placebo were provided in 400 mg capsules and owners were instructed on the proper method for daily oral administration of capsules to their canines and provided with the appropriate number of capsules for the duration of the 2-week study. Blood samples were taken at both the start and conclusion of the two-week trial period to monitor for changes in blood chemistry as well as potential changes in inflammatory markers as described below. Owners completed the HCPI prior to starting the study, one-week after starting the study, and a final time at the conclusion of the study at two-weeks.
In addition to the standard blood chemistry profile, blood samples taken before and at the conclusion of the two-week trial period were analyzed for PGE2 and SAA. Blood samples were collected in heparin tubes for PGE2 and in serum collection tubes for SAA. Both plasma and serum samples were centrifuged at 2000×g for 10 minutes and the plasma and serum supernatants removed and frozen at […] until analyzed for PGE2 and SAA using enzyme-linked immunosorbent assays ([…]). Of the 30 canines enrolled, 8 were excluded from the blood analysis portion of the study due to sampling/storage issues resulting in a lack of a pre- or post-trial sample. As PGE2 is rapidly metabolized in plasma, measurement of PGE2 metabolites is the most reliable method for assessing plasma levels of PGE2. Plasma samples were analyzed for PGE2 using the bicycle PGE2 competitive EIA kit purchased from Cayman Chemical (Ann Arbor, MI). The assay converts PGE2 metabolites into a stable derivative that is measured using EIA. Samples (100 μl) were analyzed in triplicate and PGE2 concentrations determined by use of standard curve. For SAA measurements, a solid phase sandwich EIA kit (Tridelta Development Ltd, Maytooth, Co Kildare, Ireland) was used as described previously.

For series [4], the system named is cultured canine chondrocytes. Put plainly: PGE2 release in cultured canine chondrocytes challenged with IL1b. Type of series: cell-based. Particulars: 100 μM, IL1b challenge, FIG. 3. On the procedure: The study involved the use of cultured canine chondrocytes (i.e., cells within the joint that are activated during OA). The canine chondrocytes were subjected to an inflammatory challenge in the form of cytokine Interleukin 1 beta (“IL1b”). The canine chondrocytes were then treated with various anti-inflammatory compounds including Alpha-GEE; glucosamine; a TNFα receptor antagonist; and a NSAID (Rimadyl). Alpha-GEE was administered in concentrations ranging from 10 μM to 1000 μM. The resulting effects of the various treatments on both PGE2 release and TNFα release were examined.
Alpha-GEE, glucosamine, and Rimadyl were used in a concentration of 100 μM, while the TNFα inhibitor was used in a concentration of 1 μM. Based on all of the treatments examined (i.e., Alpha-GEE; glucosamine; NSAID (Rimadyl); and TNFα receptor antagonist), Alpha-GEE produced the most dramatic decrease in PGE2 at the early 4-hour time point. […] The reduction in PGE2 release at the early 4 hour time point was greater than that observed with the NSAID, Rimadyl, glucosamine, or TNFα receptor blocker. The maximal effect of Alpha-GEE on PGE2 release from chondrocytes was observed within 8 hours, where a 75% reduction in PGE2 release was observed.

Consider “ethyl (α-guanido-methyl) ethanoate [Alpha-GEE]”, for which, in series [1] (mean ± SD after two weeks, pre-trial 673 ± 869, p < 0.05 compared to placebo (1483 ± 1653)), the “Serum Amyloid A concentration, post-trial” value was found to be 255 ± 221 ng/mL. For the same substance, the “SAA levels compared to placebo at the end of the study” value in series [1] (two-week trial, 36 mg/kg/day) was “significantly lower”. Further, the “increase in daily pedometer readings (mobility)” value in series [2] (first week versus baseline week, p<0.05 vs placebo) was “approximately 20%”. Moreover, in series [2] (second week versus baseline week, p<0.01 vs placebo), the “increase in daily pedometer readings (mobility, physical activity)” value is listed as “approximately 30%”. Also, in series [3] (mean ± SD after two weeks, pre-trial 1.2 ± 0.7, normal range 0.3-1.4), the “Creatinine, post-trial” value came to 1.5 ± 0.7 mg/dL. Also, the “Total Protein, post-trial” value in series [3] (mean ± SD after two weeks, pre-trial 6.6 ± 0.4, normal range 5.4-8.2) came out at 6.5 ± 0.4 g/dL. Moreover, in series [3] (mean ± SD after two weeks, pre-trial 24 ± 22, normal range 7-25), the “BUN, post-trial” value is on record as 24 ± 19 mg/dL. Besides, the “ALT, post-trial” value in series [3] (mean ± SD after two weeks, pre-trial 89 ± 99, normal range 10-118) is given as 53 ± 37 U/L. Moreover, in series [3] (mean ± SD after two weeks, pre-trial 102 ± 11, normal range 80-110), the “Glucose, post-trial” value was determined as 101 ± 11 mg/dL. Moreover, the “ALP, post-trial” value in series [3] (mean ± SD after two weeks, pre-trial 110 ± 104, normal range 20-150) turned out to be 103 ± 131 U/L. Further, the “change in post-trial blood chemistry profiles compared to pre-trial values” in series [3] (two-week trial) is “no significant changes”. In addition, the “reduction in PGE2 release from canine chondrocytes” value in series [4] (4 hours) is given as “approximately 60%”. In series [4] (within 8 hours), the “reduction in PGE2 release from canine chondrocytes (maximal effect)” value is reported as 75%.
